EP0326329B1, “Quinazoline derivatives useful as insecticides” (Dow AgroSciences LLC, priority 1988, dated 1989)

Legend:
Type in all cases: in vivo
[1] = tested on: Pyricularia oryzae (rice blast); details: disease control rating, foliar spray, host rice; 400 ppm (+++ at 100 ppm)
[2] = tested on: Pseudoperonospora cubensis (downy mildew); assay: Greenhouse Test 1, foliar spray fungicide screen (DOWN MDEW), host squash; details: disease control rating, 400 ppm (+++ at 100 ppm)
[3] = tested on: melon aphids (Aphis gossypii Glover); assay: Mite/insect screen, sprayed squash cotyledons (MA); details: Aphis gossypii, percent mortality, read-out: MA RESULTS %; for mortality at 400 ppm: spray rate 400 ppm; for mortality at 200 ppm: spray rate 200 ppm
In short: (§1)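 Compounds dissolved in acetone/alcohol with TOXIMUL R/S emulsifiers, diluted with water to test concentrations, and sprayed to runoff on both leaf surfaces at 10 psi, then dried 1 h. Excised treated squash leaves given southern armyworm larvae; aphid and spider mite tests on sprayed squash cotyledons. Percent mortality and phytotoxicity scored after standard exposure.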

[4] = tested on: southern armyworm (Spodopetra eridania Cramer); assay: Mite/insect screen, sprayed squash leaves (SAW); details: percent mortality; for mortality at 400 ppm / mortality at 200 ppm: Spodoptera eridania, read-out: SAW RESULTS %; for mortality at 400 ppm: spray rate 400 ppm
In short: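 Acetone/alcohol (50:50) + emulsifier blends 23 g/L and 13 g/L; water dilution to test concs. Spray both leaf surfaces to runoff, dry 1 h. For armyworm, 2 excised uninfested leaves into Petri dish with larvae. Readout: % mortality, phytotoxicity.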

[5] = tested on: Erysiphe graminis tritici (powdery mildew); assay: Greenhouse Test 1, foliar spray fungicide screen (POWD MDEW), host wheat; details: disease control rating, 400 ppm (+++ at 100 ppm)
[6] = tested on: Puccinia recondita tritici (leaf rust); assay: Greenhouse Test 1, foliar spray fungicide screen (LEAF RUST), host wheat; details: disease control rating, 400 ppm (+++ at 100 ppm)
[7] = tested on: Southern corn rootworm (Diabrotica undecimpuctata howardi Barber); assay: Mite/insect screen, soil treatment (CRW); details: percent mortality, soil treatment; for mortality at 24 ppm / mortality at 12 ppm: Diabrotica, read-out: CRW RESULTS %; for mortality at 24 ppm: CRW rate 24.00 ppm
In short: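 Five 2–3 instar larvae were placed on dry sandy soil with a presoaked corn seed after the soil had received 1 mL of compound solution and dried 6–12 h; cups were kept capped at 23°C. Mortality (%) and phytotoxicity were read after standard exposure. Formulation: acetone/alcohol with emulsifiers, water-diluted.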

[8] = tested on: Botrytis cinerea (gray mold); assay: Greenhouse Test 1, foliar spray fungicide screen (GRAY MOLD), host grape berries; details: disease control rating, 400 ppm (+++ at 100 ppm)
[9] = tested on: Twospotted spider mites (Tetranychus urticae Koch); assay: Mite/insect screen, sprayed squash cotyledons (SM); details: Tetranychus urticae, percent mortality, read-out: SM RESULTS %; for mortality at 400 ppm: spray rate 400 ppm; for mortality at 200 ppm: spray rate 200 ppm
In short: as §1

Compound	RICE BLAST [1]	DOWN MDEW [2]	mortality at 400 ppm [3]	mortality at 400 ppm [4]	POWD MDEW [5]	LEAF RUST [6]	mortality at 24 ppm [7]	GRAY MOLD [8]	mortality at 400 ppm [9]	mortality at 200 ppm [3]	mortality at 200 ppm ([4]; spray rate 200 ppm)	mortality at 12 ppm ([7]; CRW rate 12.00 ppm)	mortality at 200 ppm [9]	SAW RESULTS % ([4]; spray rate 200 ppm)	CRW RESULTS % ([7]; CRW rate 12.00 ppm)
COc1ccccc1CCOc1ncnc2c(F)cccc12 [Example 131, 8-fluoro-4-[2-(2-methoxyphenyl)ethoxy]quinazoline]	+++ (+++ = 90-100% control at 100 ppm)	+++ (+++ = 90-100% control at 100 ppm)	0%	0%	+++ (+++ = 90-100% control at 100 ppm)	+++ (+++ = 90-100% control at 100 ppm)	0%	- (- = 0-19% control at 400 ppm)	0%	–	–	–	–	–	–
COc1ccc(CCOc2ncnc3c(F)cccc23)cc1 [Example 132, 8-fluoro-4-[2-(4-methoxyphenyl)ethoxy]quinazoline]	+++ (+++ = 90-100% control at 100 ppm)	+++ (+++ = 90-100% control at 100 ppm)	0%	0%	+++ (+++ = 90-100% control at 100 ppm)	+++ (+++ = 90-100% control at 100 ppm)	0%	- (- = 0-19% control at 400 ppm)	0%	80%	0%	0%	20%	–	–
Fc1cccc2c(OCCc3cccc(C(F)(F)F)c3)ncnc12 [Example 133, 8-fluoro-4-[2-[3-(trifluoromethyl)phenyl]ethoxy]quinazoline]	+++ (+++ = 90-100% control at 100 ppm)	+ (+ = 20-89% control at 400 ppm)	100%	0%	+++ (+++ = 90-100% control at 100 ppm)	+++ (+++ = 90-100% control at 100 ppm)	100%	- (- = 0-19% control at 400 ppm)	100%	–	0%	0%	–	0%	0%
CC(C)c1ccccc1CCOc1ncnc2ccccc12 [Example 135, 4-[2-[2-(1-methylethyl)phenyl]ethoxy]quinazoline]	+++ (+++ = 90-100% control at 100 ppm)	+++ (+++ = 90-100% control at 100 ppm)	0%	0%	+++ (+++ = 90-100% control at 100 ppm)	+++ (+++ = 90-100% control at 100 ppm)	0%	- (- = 0-19% control at 400 ppm)	0%	0%	0%	0%	0%	–	–
CC(C)(C)c1ccc(CCOc2ncnc3cc(Cl)ccc23)cc1 [Example 136, 7-chloro-4-[2-[4-(1,1-dimethylethyl)phenyl]ethoxy]quinazoline]	- (- = 0-19% control at 400 ppm)	- (- = 0-19% control at 400 ppm)	0%	0%	- (- = 0-19% control at 400 ppm)	- (- = 0-19% control at 400 ppm)	0%	- (- = 0-19% control at 400 ppm)	0%	0%	100%	0%	0%	–	–
c1ccc(Sc2cccc(CCOc3ncnc4ccccc34)c2)cc1 [Example 137, 4-[2-[3-(phenylthio)phenyl]ethoxy]quinazoline]	+++ (+++ = 90-100% control at 100 ppm)	+++ (+++ = 90-100% control at 100 ppm)	0%	0%	+++ (+++ = 90-100% control at 100 ppm)	+++ (+++ = 90-100% control at 100 ppm)	100%	- (- = 0-19% control at 400 ppm)	0%	60%	0%	0%	0%	–	–
CC(C)(C)c1ccc(CCCOc2ncnc3ccccc23)cc1 [Example 138, 4-[3-[4-(1,1-dimethylethyl)phenyl]propoxy]quinazoline]	+ (+ = 20-89% control at 400 ppm)	++ (++ = 90-100% control at 400 ppm)	60%	0%	++ (++ = 90-100% control at 400 ppm)	- (- = 0-19% control at 400 ppm)	0%	- (- = 0-19% control at 400 ppm)	80%	30%	0%	0%	0%	–	–
Cc1cccc2c(OCCc3ccc(C(C)(C)C)cc3)ncnc12 [Example 139, 8-methyl-4-[2-[4-(1,1-dimethylethyl)phenyl]ethoxy]quinazoline]	+++ (+++ = 90-100% control at 100 ppm)	++ (++ = 90-100% control at 400 ppm)	0%	0%	+ (+ = 20-89% control at 400 ppm)	+ (+ = 20-89% control at 400 ppm)	0%	- (- = 0-19% control at 400 ppm)	100%	30%	0%	0%	–	–	–
CC(C)(C)c1ccc(CCCNc2ncnc3ccc(Cl)cc23)cc1 [Example 140, 6-chloro-N-(3-[4-(1,1-dimethylethyl)phenyl]propyl]-4-quinazoline]	++ (++ = 90-100% control at 400 ppm)	++ (++ = 90-100% control at 400 ppm)	0%	0%	+ (+ = 20-89% control at 400 ppm)	+ (+ = 20-89% control at 400 ppm)	0%	- (- = 0-19% control at 400 ppm)	80%	0%	0%	0%	0%	–	–
Fc1cccc2c(OCCc3cccc4ccccc34)ncnc12 [Example 141, 8-fluoro-4-[2-(1-naphthalenyl)ethoxy]quinazoline]	+ (+ = 20-89% control at 400 ppm)	+ (+ = 20-89% control at 400 ppm)	0%	0%	+ (+ = 20-89% control at 400 ppm)	+ (+ = 20-89% control at 400 ppm)	0%	- (- = 0-19% control at 400 ppm)	0%	–	–	–	–	–	–
